From ChEMBL document CHEMBL4004804, “Rationally designed benzopyran fused isoxazolidines and derived β2,3,3-amino alcohols as potent analgesics: Synthesis, biological evaluation and molecular docking analysis” (Eur J Med Chem, 2017) come the findings set out here.

Activity calls are given as the source filed them. The calls are words filed in the database; no cut-off is given here.

The test system of data set [1] is Mus musculus. In words: Analgesic activity in Swiss albino mouse assessed as inhibition of acetic acid-induced abdominal constriction at 10 mg/kg administered for 30 mins followed by acetic acid challenge measured after 30 mins relative to vehicle-treated control. It is filed as functional. To be noted: 0.5 h.
For data set [2], the system named is Mus musculus. Nature of the data set: Analgesic activity in Swiss albino mouse assessed as inhibition of acetic acid-induced abdominal constriction at 100 ug/kg administered for 30 mins followed by acetic acid challenge measured after 30 mins. It is filed as functional.
The test system of data set [3] is Mus musculus. In words: Analgesic activity in Swiss albino mouse assessed as inhibition of acetic acid-induced abdominal constriction at 80 ug/kg administered for 30 mins followed by acetic acid challenge measured after 30 mins. The class given is functional.
The subject of data set [4] is Mus musculus. Nature of the data set: Analgesic activity in Swiss albino mouse assessed as inhibition of formalin-induced paw flinching at 80 ug/kg administered for 30 mins followed by formalin challenge measured during 10 to 30 mins post formalin challenge. It is filed as functional.
In data set [5] the test system is Mus musculus. Nature of the data set: Analgesic activity in Swiss albino mouse assessed as inhibition of formalin-induced paw flinching at 10 mg/kg administered for 30 mins followed by formalin challenge measured during 10 to 30 mins post formalin challenge relative to vehicle-treated control. It is filed as functional.
The subject of data set [6] is Mus musculus. In words: Analgesic activity in Swiss albino mouse assessed as inhibition of formalin-induced paw flinching at 10 mg/kg administered for 30 mins followed by formalin challenge measured during first 5 mins post formalin challenge. It is filed as functional.
For data set [7], the system named is THP-1. In words: Antiinflammatory activity in PMA-treated human THP1 cells assessed as inhibition of LPS-induced TNF-alpha production after 24 hrs by ELISA. It is filed as functional, cell-based. As to conditions: THP-1, 24 h.
Data set [8] has as its system Mus musculus. Nature of the data set: Analgesic activity in Swiss albino mouse assessed as inhibition of formalin-induced paw flinching at 10 mg/kg administered for 30 mins followed by formalin challenge measured during 10 to 30 mins post formalin challenge in presence of opioid receptor antagonist naloxone. The class given is functional, organism-based.
The test system of data set [9] is Mus musculus. In words: Acute toxicity in Swiss albino mouse assessed as effect on myocardium at 2000 mg/kg after 14 days by hematoxylin and eosin staining based assay. To be noted: in vivo, 336 h. It is filed as organism-based.
Data set [10] relates to Mus musculus. Nature of the data set: Analgesic activity in Swiss albino mouse assessed as inhibition of acetic acid-induced abdominal constriction at 10 mg/kg administered for 30 mins followed by acetic acid challenge measured after 30 mins in presence of prostaglandin analogue misoprostol. It is filed as functional, organism-based.
Data set [11] concerns Mus musculus. In words: Analgesic activity in Swiss albino mouse assessed as inhibition of acetic acid-induced abdominal constriction at 10 mg/kg administered for 30 mins followed by acetic acid challenge measured after 30 mins in presence of opioid receptor antagonist naloxone. It is filed as functional, organism-based.
Data set [12] concerns THP-1. In words: Cytotoxicity against human THP1 cells assessed as decrease in cell proliferation after 24 to 48 hrs by MTT assay. The class given is cell-based.
Data set [13] concerns THP-1. In words: Antiinflammatory activity in PMA-treated human THP1 cells assessed as inhibition of LPS-induced IL-6 production after 24 hrs by ELISA. To be noted: THP-1, 24 h. It is filed as functional, cell-based.
In data set [14] the test system is Mus musculus. In words: Acute toxicity in Swiss albino mouse assessed as behavioral abnormality at 50 to 2000 mg/kg after 14 days. It is filed as organism-based. As to conditions: in vivo, 336 h.
The subject of data set [15] is Mus musculus. Nature of the data set: Acute toxicity in Swiss albino mouse assessed as effect on liver at 2000 mg/kg after 14 days by hematoxylin and eosin staining based assay. The class given is organism-based. As to conditions: in vivo, 336 h.

For `CN[C@@]1(C)c2cc(C)ccc2OC[C@H]1CO`, the inhibition in vivo at 10 mg/kg in data set [1] amounted to 59.3%.
With `CCCC[C@](C)(O)C/C=C/[C@H]1[C@H](O)CC(=O)[C@@H]1CCCCCCC(=O)OC`, in data set [2], the inhibition entry was “inactive”.
Regarding `Cc1ccc2c(c1)[C@@]1(C)[C@@H](CO2)CON1C`, the inhibition in vivo at 10 mg/kg in data set [1] was 68.2%.
Take `C=CCN1CC[C@]23c4c5ccc(O)c4O[C@H]2C(=O)CC[C@@]3(O)[C@H]1C5`: the inhibition entry in data set [3] and in [4] was “inactive” in each case.
As to `CN[C@@]1(C)c2cc(OC)ccc2OC[C@H]1CO`, the inhibition in vivo at 10 mg/kg in [1] came out at 63.2%.
Take `COc1ccc2c(c1)c(CC(=O)O)c(C)n2C(=O)c1ccc(Cl)cc1` [INDOMETHACIN]: the inhibition in vivo at 10 mg/kg worked out at 56.7% in data set [1] and 50.6% in data set [5]. The inhibition entry in data set [6] is “inactive”.
As for `COc1ccc2c(c1)[C@@]1(C)[C@@H](CO2)CON1C`, the IC50 was 4.58 µM in data set [7], greater than 100 µM in data set [12] and 1.12 µM in data set [13]. Also, the inhibition entry in data set [8] and in [11] was “inactive” throughout. Further, the Activity result in [9], in data set [14] and in data set [15] was “Non-Toxic” in each case. For the same compound, the inhibition result in data set [10] is “Active”. Moreover, the figures for the inhibition in vivo at 10 mg/kg in data set [1], in [5] and in data set [6] were 69.4%, 68.3% and 62.7%, respectively.
